In patent publication US6124269A, “2-Halo-6-O-substituted ketolide derivatives” (priority 1998, dated 2000):
In brackets after ≈: the same amount, converted by molar mass.

What was measured:
Format in all cases: cell-based
[1] = test system: Staphylococcus aureus ATCC 6538P; test: In vitro agar dilution MIC, organism code AA; conditions: Table 1B, unit assumed
Summary of the method: (§1)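 Agar dilution on Brain Heart Infusion agar holding twelve successive aqueous dilutions of compound; plates inoculated by replicator with 1:100 culture dilutions (1:10 for slow growers such as Streptococcus). Incubated 35-37° C for 20 to 24 hours. MIC is the lowest concentration giving no growth, slight haze or sparse colonies versus growth control.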

[2] = test system: Staphylococcus aureus A5177; test: In vitro agar dilution MIC, organism code BB; conditions: Table 1B, in µg/mL (unit assumed)
Summary of the method: as §1

[3] = test system: Staphylococcus aureus A-5278; test: In vitro agar dilution MIC, organism code CC; conditions: Table 1B, unit assumed
Summary of the method: as §1

[4] = test system: Staphylococcus aureus CMX 642A; test: In vitro agar dilution MIC, organism code DD; conditions: Table 1B, unit assumed
Summary of the method: as §1

[5] = test system: Staphylococcus aureus NCTC10649M; test: In vitro agar dilution MIC, organism code EE; conditions: Table 1B, unit assumed
Summary of the method: as §1

[6] = test system: Staphylococcus aureus CMX 553; test: In vitro agar dilution MIC, organism code FF; conditions: Table 1B, unit assumed
Summary of the method: as §1

[7] = test system: Staphylococcus aureus 1775; test: In vitro agar dilution MIC, organism code GG; conditions: Table 1B, unit assumed
Summary of the method: as §1

[8] = test system: Staphylococcus epidermidis 3519; test: In vitro agar dilution MIC, organism code HH; conditions: Table 1B, in µg/mL (unit assumed)
Summary of the method: as §1

[9] = test system: Enterococcus faecium ATCC 8043; test: In vitro agar dilution MIC, organism code II; conditions: Table 1B, unit assumed
Summary of the method: as §1

[10] = test system: Streptococcus bovis A-5169; test: In vitro agar dilution MIC, organism code JJ; conditions: Table 1B, unit assumed
Summary of the method: as §1

[11] = test system: Streptococcus agalactiae CMX 508; test: In vitro agar dilution MIC, organism code KK; conditions: Table 1B, unit assumed
Summary of the method: as §1

[12] = test system: Streptococcus pyogenes EES61; test: In vitro agar dilution MIC, organism code LL; conditions: Table 1B, unit assumed
Summary of the method: as §1

[13] = test system: Streptococcus pyogenes 930; test: In vitro agar dilution MIC, organism code MM; conditions: Table 1B, unit assumed
Summary of the method: as §1

[14] = test system: Streptococcus pyogenes PIU 2548; test: In vitro agar dilution MIC, organism code NN; conditions: Table 1B, unit assumed
Summary of the method: as §1

[15] = test system: Micrococcus luteus ATCC 9341; test: In vitro agar dilution MIC, organism code OO; conditions: Table 1B, unit assumed
Summary of the method: as §1

[16] = test system: Micrococcus luteus ATCC 4698; test: In vitro agar dilution MIC, organism code PP; conditions: Table 1B, in µg/mL (unit assumed)
Summary of the method: as §1

Escherichia coli JUHL = test: In vitro agar dilution MIC, organism code QQ; conditions: Table 1B, in µg/mL (unit assumed)
Summary of the method: as §1

Escherichia coli SS = test: In vitro agar dilution MIC, organism code RR; conditions: Table 1B, in µg/mL (unit assumed)
Summary of the method: as §1

Escherichia coli DC-2 = test: In vitro agar dilution MIC, organism code SS; conditions: Table 1B, unit assumed
Summary of the method: as §1

Candida albicans CCH 442 = test: In vitro agar dilution MIC, organism code TT; conditions: Table 1B, unit assumed
Summary of the method: as §1

[17] = test system: Mycobacterium smegmatis ATCC 114; test: In vitro agar dilution MIC, organism code UU; conditions: Table 1B, in µg/mL (unit assumed)
Summary of the method: as §1

[18] = test system: Nocardia asteroides ATCC 9970; test: In vitro agar dilution MIC, organism code VV; conditions: Table 1B, in µg/mL (unit assumed)
Summary of the method: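 Strains were stamped onto compound-containing Brain Heart Infusion agar and grown at 35-37° C for 20 to 24 hours. Lowest concentration without growth, or with only haze or scattered colonies, defined the MIC.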

[19] = test system: Haemophilis influenzae DILL AMP R; test: In vitro agar dilution MIC, organism code WW; conditions: Table 1B, unit assumed
Summary of the method: as §1

[20] = test system: Streptococcus pneumoniae ATCC 6303; test: In vitro agar dilution MIC, organism code XX; conditions: Table 1B, unit assumed
Summary of the method: as §1

[21] = test system: Streptococcus pneumoniae GYR 1171; test: In vitro agar dilution MIC, organism code YY; conditions: Table 1B, unit assumed
Summary of the method: as §1

[22] = test system: Streptococcus pneumoniae 5979; test: In vitro agar dilution MIC, organism code ZZ; conditions: Table 1B, unit assumed
Summary of the method: as §1

[23] = test system: Streptococcus pneumoniae 5649; test: In vitro agar dilution MIC, organism code ZZA; conditions: Table 1B, unit assumed
Summary of the method: as §1

Compound | MIC [1] | MIC [2] | MIC [3] | MIC [4] | MIC [5] | MIC [6] | MIC [7] | MIC [8] | MIC [9] | MIC [10] | MIC [11] | MIC [12] | MIC [13] | MIC [14] | MIC [15] | MIC [16] | MIC (Escherichia coli JUHL) | MIC (Escherichia coli SS) | MIC (Escherichia coli DC-2) | MIC (Candida albicans CCH 442) | other results
CC[C@H]1OC(=O)[C@@](C)(F)C(=O)[C@H](C)[C@@H](O[C@@H]2O[C@H](C)C[C@H](N(C)C)[C@H]2O)[C@](C)(OC/C=C/c2cnc3ccc(N(C)C)cc3c2)C[C@@H](C)C(=O)[C@H](C)[C@H]2NC(=O)O[C@@]21C [Example 13] | 0.2 µg/mL (≈ 0.242 µM) | 0.2 | > 100 µg/mL | 0.2 µg/mL (≈ 0.242 µM) | 0.2 µg/mL (≈ 0.242 µM) | 0.2 µg/mL (≈ 0.242 µM) | > 100 µg/mL | 0.2 | 0.1 µg/mL (≈ 0.121 µM) | 0.02 µg/mL (≈ 0.0242 µM) | 0.02 µg/mL (≈ 0.0242 µM) | 0.05 µg/mL (≈ 0.0605 µM) | 0.78 µg/mL (≈ 0.943 µM) | 0.2 µg/mL (≈ 0.242 µM) | 0.02 µg/mL (≈ 0.0242 µM) | 0.2 | 50 | 0.78 | 100 µg/mL (≈ 121 µM) | > 100 µg/mL | MIC [17]: 0.78; MIC [18]: 0.05; MIC [19]: 8 µg/mL (≈ 9.67 µM); MIC [20]: 0.06 µg/mL (≈ 0.0726 µM); MIC [21]: 0.06 µg/mL (≈ 0.0726 µM); MIC [22]: 1 µg/mL (≈ 1.21 µM); MIC [23]: 0.5 µg/mL (≈ 0.605 µM)
CC[C@H]1OC(=O)[C@@](C)(F)C(=O)[C@H](C)[C@@H](O[C@@H]2O[C@H](C)C[C@H](N(C)C)[C@H]2O)[C@](C)(OC/C=C/c2cnc3ccc(C=O)cc3c2)C[C@@H](C)C(=O)[C@H](C)[C@H]2NC(=O)O[C@@]21C [Example 17] | 0.05 µg/mL (≈ 0.0616 µM) | 0.1 | > 100 µg/mL | 0.1 µg/mL (≈ 0.123 µM) | 0.2 µg/mL (≈ 0.246 µM) | 0.1 µg/mL (≈ 0.123 µM) | > 100 µg/mL | 0.1 | 0.05 µg/mL (≈ 0.0616 µM) | 0.01 µg/mL (≈ 0.0123 µM) | 0.02 µg/mL (≈ 0.0246 µM) | 0.02 µg/mL (≈ 0.0246 µM) | 0.78 µg/mL (≈ 0.961 µM) | 0.2 µg/mL (≈ 0.246 µM) | 0.02 µg/mL (≈ 0.0246 µM) | 0.05 | 100 | 0.78 | 100 µg/mL (≈ 123 µM) | > 100 µg/mL | MIC [17]: 0.39; MIC [18]: 0.02; MIC [19]: 2 µg/mL (≈ 2.46 µM); MIC [20]: 0.03 µg/mL (≈ 0.0369 µM); MIC [21]: 0.015 µg/mL (≈ 0.0185 µM); MIC [22]: 1 µg/mL (≈ 1.23 µM); MIC [23]: 0.5 µg/mL (≈ 0.616 µM)
CC[C@H]1OC(=O)[C@@](C)(F)C(=O)[C@H](C)[C@@H](O[C@@H]2O[C@H](C)C[C@H](N(C)C)[C@H]2O)[C@](C)(OC/C=C/c2cnc3ccc(C(N)=O)cc3c2)C[C@@H](C)C(=O)[C@H](C)[C@H]2NC(=O)O[C@@]21C [Example 15] | 0.05 µg/mL (≈ 0.0605 µM) | 0.05 | > 100 µg/mL | 0.05 µg/mL (≈ 0.0605 µM) | 0.05 µg/mL (≈ 0.0605 µM) | 0.05 µg/mL (≈ 0.0605 µM) | > 100 µg/mL | 0.05 | 0.05 µg/mL (≈ 0.0605 µM) | 0.01 µg/mL (≈ 0.0121 µM) | 0.01 µg/mL (≈ 0.0121 µM) | 0.01 µg/mL (≈ 0.0121 µM) | 0.1 µg/mL (≈ 0.121 µM) | 0.1 µg/mL (≈ 0.121 µM) | 0.01 µg/mL (≈ 0.0121 µM) | 0.05 | 25 | 0.2 | 12.5 µg/mL (≈ 15.1 µM) | > 100 µg/mL | MIC [17]: 0.39; MIC [18]: 0.05; MIC [19]: 4 µg/mL (≈ 4.84 µM); MIC [20]: ≤ 0.004 µg/mL; MIC [21]: ≤ 0.004 µg/mL; MIC [22]: 0.5 µg/mL (≈ 0.605 µM); MIC [23]: 0.25 µg/mL (≈ 0.302 µM)
